This is an account of results in article PMC10611442, “Amelogenin Peptide-Chitosan Hydrogel for Biomimetic Enamel Regrowth” (Frontiers in dental medicine, 2021).

This assay can be described thus: Nanoindentation (hardness and elastic modulus) of remineralized enamel sections. The settings on record: demineralization 2 h pH 4.6; 7-day mineralization cycle in artificial saliva, daily application, hydrogels 0.2 mg/ml; mean ± SD. Also noted: species or system human. The method, then:
To enhance the mechanical responses, the remineralization cycle was optimized and extended to 7 days. After demineralization, each tooth setting (comprising 3 or 4 teeth sections) was placed into separate cylindrical containers containing remineralization solution (30 ml, pH 7, RT) for 1 week. Experimental groups included healthy enamel, demineralized enamel, control (900 ppm F^−; 0.2% NaF), P26-CS and P32-CS (n = 3 per group).
Every 24 h after the start of the remineralization cycle, 30 μL of NaF solution (900 ppm F^−; 0.2% NaF) was added on top of each tooth for 10 min per day. The teeth were gently rinsed in distilled water and dried. A fresh 20 μl treatment application (P26-CS and P32-CS) was made to each window, followed by air drying for 15 min at RT and then the samples were returned to the fresh stock of remineralization solution. The remineralization solution and peptide were replaced daily. After 1 week of daily treatment application, the slices were sonicated, rinsed, dried, and stored in distilled water at 4°C for nanoindentation. The hardness and elastic modulus of the peptide-mediated mineralized layers were evaluated by nanoindentation tests. The device was calibrated to examine the mechanical properties of the remineralized HAP layers on teeth slices at the nanoscale. […]

`[F-].[Na+]` [0.2% NaF, NaF]: the “elastic modulus of regrown enamel (nanoindentation)” value worked out at 40.57 ± 15.8 GPa and the “hardness of regrown enamel (nanoindentation)” value was 1.3 ± 0.6 GPa.
